The values below come from PMC8977893 (Frontiers in Cell and Developmental Biology, 2022).

Test [1] deals with calpain in washed human platelets. Type of test: cell-based.
For a further test, the system named is talin in human platelets. Type of test: cell-based.
For test [2], the system named is SH-SY5Y cells. Type of test: cell-based, human.
Test [3] concerns human platelets. Type of test: cell-based. The note with it: fibrinogen 2 mg/ml; PrP 20 µM.
The subject of test [4] is SH-SY5Y cells. Type of test: cell-based, human. The source holds these as a separate data set.
Test [5] concerns SH-SY5Y cells. Type of test: cell-based, human. This is another data set of the same source.
Test [6] relates to human platelets. Type of test: cell-based. Particulars: fibrinogen 0.5 to 2 mg/ml before PrP(106–126) 20 µM; 1 mM Ca2+.
The target of test [7] is fibrinogen from human plasma (human, UniProt P02671 36-866; P02675 45-491; P02679 27-453). Kind of test: SPR. Particulars: both partners purified.

Several values for one entry are separate records, joined by “and”; a condition that tells them apart may be missing. Equal entries are not always repeated.

By Kd is commonly meant the constant that tells how readily two partners part at equilibrium. Read a high Kd as a looser complex.

Turning to `CNc1ccc2oc(C[C@H]3O[C@@]4(CC[C@H]3C)O[C@H]([C@H](C)C(=O)c3ccc[nH]3)[C@H](C)C[C@H]4C)nc2c1C(=O)O` [A23187, reference compound], the “calpain activity in platelets (in words)” value in test [1] is “significant enhancement in calpain activity”. In addition, the “proteolysis of talin (235 kDa to 190 kDa fragment)” value with talin in human platelets is given as “complete proteolysis of talin”.

Take `C[S+](C)[O-]` [DMSO, dimethylsulfoxide, reference compound]: in the test on SH-SY5Y cells [2], the “Cell line MTT (viability, Vehicle = 100)” value was 15.72 and 26.11 and 18.47.

Consider “fibrinogen: thrombogenic plasma protein fibrinogen from human plasma (Sigma #F4883)”, for which the “effect of prior fibrinogen exposure on prion-induced extracellular vesicle shedding” value with human platelets [3] is recorded as “completely thwarted”. Moreover, the “abrogation of the PrP-induced FSC increase by prior fibrinogen treatment” value in the test with SH-SY5Y cells [4] is listed as 16.34% ± 17.85. Further, the “attenuation of the rise in ΔΨm on preincubation with fibrinogen” value with SH-SY5Y cells [5] came to 1.7 fold. The “drop in calpain activity on fibrinogen preincubation” value in test [1] was 30%. In the test on human platelets [6], the “effect of fibrinogen pretreatment on prion-induced rise in [Ca2+]i” value is “attenuated prion-induced rise in [Ca^2+]i in a dose-dependent manner”. Further, the “effect of fibrinogen on prion-mediated cleavage of talin” value in the test on talin in human platelets (fibrinogen 2 mg/ml preincubation, immunoblot, 190 kDa product) is “completely prevented prion-mediated cleavage of talin”. Moreover, the “Cell line MTT (viability, Vehicle = 100)” value in the test with SH-SY5Y cells [2] is 101.27 and 76.19 and 118.37. Moreover, in the test on SH-SY5Y cells [2] (48 h), the “effect of fibrinogen preincubation on PrP-induced loss of viability” value is listed as “completely restored”.

B1: PrP(106–126) (peptide)
peptide: KTNMKHMAGAAAAGAVVGGLG
notes: also called prion peptide; prion
B1 returned a Kd in test [7] of 512 ± 89 nM.
